Tests used:
Experiment in all cases: two-electrode voltage clamp, Xenopus oocytes
Type in all cases: cell-based
Asu-ACR-16 nAChR [1] = target: T1, Asu-ACR-16 nAChR (Ascaris suum, UniProt A0A0K0QSL7); details: non-competitive inhibition of ACh-evoked currents, -60 mV
T1 construct: homopentameric nAChR; full-length subunit cRNA injected in Xenopus laevis oocytes; no auxiliary subunit mentioned
T1 sequence (A0A0K0QSL7 1-504): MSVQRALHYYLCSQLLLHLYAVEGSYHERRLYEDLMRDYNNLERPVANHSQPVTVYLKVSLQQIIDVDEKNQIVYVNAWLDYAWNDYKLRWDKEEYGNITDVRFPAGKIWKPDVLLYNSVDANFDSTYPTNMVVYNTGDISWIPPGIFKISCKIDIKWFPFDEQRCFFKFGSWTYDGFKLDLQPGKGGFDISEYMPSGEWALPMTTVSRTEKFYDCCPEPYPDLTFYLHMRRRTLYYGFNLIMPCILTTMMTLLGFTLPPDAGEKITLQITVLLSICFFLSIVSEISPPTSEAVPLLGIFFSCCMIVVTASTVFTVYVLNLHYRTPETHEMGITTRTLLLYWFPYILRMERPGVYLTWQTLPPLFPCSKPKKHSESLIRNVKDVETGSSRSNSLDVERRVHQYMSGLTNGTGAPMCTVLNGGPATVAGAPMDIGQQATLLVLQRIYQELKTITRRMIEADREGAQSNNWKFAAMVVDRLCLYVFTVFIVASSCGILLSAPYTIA

Asu-ACR-16 nAChR [2] = target: T1, Asu-ACR-16 nAChR; details: non-competitive antagonist of ACh-evoked currents, -60 mV
Asu-ACR-16 nAChR [3] = target: T1, Asu-ACR-16 nAChR

For `CC(C)=CCC/C(C)=C/CO` [geraniol], the “Emax of ACh at 100 μM geraniol (% of response to 100 μM ACh; control 97.63 ± 0.92%)” value (Asu-ACR-16 nAChR [1]) was 39.83 ± 1.49%.
With `Cc1ccc(C(C)C)cc1O` [carvacrol] the “Emax of ACh at 100 μM carvacrol (% of response to 100 μM ACh)” value (Asu-ACR-16 nAChR [2]) was 73.09 ± 1.87%.
For `CC(=O)OCC[N+](C)(C)C` [acetylcholine], the EC50 (Asu-ACR-16 nAChR [3]) was 7.89 ± 1.02 µM.
